Calls of active or inactive are those of the source. The rule behind the calls is not given here.
Assays:
T-cell [1] = assay: Inhibition of ConA-induced IL-2 expression in BALB/c mouse T-lymphocyte measured after 24 hrs by ELISA; type: functional, tissue-based
Splenocyte [2] = assay: Immunosuppressive activity in C57BL/6 mouse splenocyte assessed as inhibition of mixed lymphocyte reaction when cocultured with mitomycin-C pretreated BALB/c mouse splenocyte measured up to 72 hrs by CCK-8 assay; type: functional, cell-based; details: C57BL/6, Splenocyte
[3] = Inhibition of ConA-induced proliferation of BALB/c mouse splenocyte measured after 72 hrs by CCK-8 assay; type: functional, tissue-based
Splenocyte [4] = assay: Cytotoxicity against BALB/c mouse splenocyte assessed as reduction in cell viability measured after 72 hrs by CCK-8 assay; type: cell-based
[5] = biological target: Calcineurin subunit B type 1 (Homo sapiens, UniProt P63098); assay: Inhibition of CNB (unknown origin) using p-NPP as substrate preincubated for 10 mins followed by substrate addition by spectrophotometry analysis
Chain of Calcineurin subunit B type 1 (P63098 2-170 limits assumed): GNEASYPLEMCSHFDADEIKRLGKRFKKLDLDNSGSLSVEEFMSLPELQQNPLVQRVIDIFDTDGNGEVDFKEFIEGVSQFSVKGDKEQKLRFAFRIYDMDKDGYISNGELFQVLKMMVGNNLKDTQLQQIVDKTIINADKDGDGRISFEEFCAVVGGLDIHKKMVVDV

T-cell [6] = assay: Inhibition of ConA-induced IL-2 expression in BALB/c mouse T-lymphocyte at 40 uM measured after 24 hrs by ELISA; type: functional, tissue-based
Splenocyte [7] = assay: Inhibition of NFAT activation in BALB/c mouse splenocyte at 5 to 30 uM by immunoblotting analysis; type: tissue-based; details: dose 5-30 µM
Splenocyte [8] = assay: Inhibition of NFAT phosphorylation in BALB/c mouse splenocyte at 5 to 30 uM by immunoblotting analysis; type: tissue-based; details: dose 5-30 µM

Row | IC50 [5] | inhibition [5] | SMILES | inhibition (T-cell [1]) | IC50 (Splenocyte [2]) | IC50 [3] | IC50 (Splenocyte [4]) | inhibition (T-cell [6]) | inhibition (Splenocyte [7]) | inhibition (Splenocyte [8])
1 | 24 µM | – | CC[C@@H]1[C@@H](C)O[C@@](OC)([C@@H](C)[C@H](O)[C@H](C)[C@H]2OC(=O)/C=C/C=C/[C@H](C)[C@@H]([C@@H](C)[C@@H](O)[C@H](C)C(O)/C=C/[C@H](CC)[C@@H](C)O)OC(=O)/C=C/C=C/[C@@H]2C)C[C@H]1O[C@H]1C[C@H](O)[C@H](O)[C@H](C)O1 (some centres undefined) | Dose-Dependent Effect | 27.9 µM | 24.6 µM | 49 µM | Active | Active | Active
2 | – | inactive | CC[C@@H]1[C@@H](C)O[C@@](O)([C@@H](C)[C@H](O)[C@H](C)[C@H]2OC(=O)/C=C/C=C/[C@H](C)[C@@H]([C@@H](C)[C@@H](O)[C@H](C)C(O)/C=C/[C@H](CC)[C@@H](C)O)OC(=O)/C=C/C=C/[C@@H]2C)C[C@H]1O[C@H]1C[C@H](O)[C@H](O)[C@H](C)O1 (some centres undefined) | – | – | – | – | – | – | –

Reference: ChEMBL document CHEMBL4828704, “Efophylins A and B, Two C2-Asymmetric Macrodiolide Immunosuppressants from Streptomyces malaysiensis” (J Nat Prod, 2021)
